According to patent US9708336B2, “Metallo-beta-lactamase inhibitors” (priority 2014, dated 2017):
Where two headings read alike, the source gives them in different places.

Experiments:
[1] = biological target: VIM-1 (Pseudomonas aeruginosa (strain ATCC 15692 / DSM 22644 / CIP 104116 / JCM 14847 / LMG 12228 / 1C / PRS 101 / PAO1), UniProt A0A0F7KYQ8); assay: Enzyme activity: determination of IC50, fluorescence assay with CCF2-FA substrate (VIM-1); assay type: biochemical
[2] = biological target: IMP-1 (Serratia marcescens, UniProt P52699); assay: biochemical; assay type: biochemical; details: read-out: IMP-1 IC50
IMP-1, sequence (P52699 whole entry, looked up): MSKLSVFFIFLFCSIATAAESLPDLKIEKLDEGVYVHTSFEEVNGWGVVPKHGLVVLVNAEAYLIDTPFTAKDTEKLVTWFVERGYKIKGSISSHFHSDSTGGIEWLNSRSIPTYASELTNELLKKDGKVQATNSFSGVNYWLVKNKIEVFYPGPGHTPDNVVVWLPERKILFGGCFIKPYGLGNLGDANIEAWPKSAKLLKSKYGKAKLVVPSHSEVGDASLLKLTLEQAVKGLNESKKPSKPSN

[3] = biological target: NDM-1 (Klebsiella pneumoniae, UniProt C7C422); assay: biochemical; assay type: biochemical
NDM-1, sequence (C7C422 whole entry, looked up, species assumed): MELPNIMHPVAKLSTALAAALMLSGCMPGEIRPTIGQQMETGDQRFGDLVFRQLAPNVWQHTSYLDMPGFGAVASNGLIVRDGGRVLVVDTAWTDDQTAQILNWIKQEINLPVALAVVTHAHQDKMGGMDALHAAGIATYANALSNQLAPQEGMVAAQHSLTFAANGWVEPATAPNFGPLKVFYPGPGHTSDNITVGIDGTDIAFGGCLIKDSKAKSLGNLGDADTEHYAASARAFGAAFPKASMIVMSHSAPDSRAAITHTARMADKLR

[4] = tested on: Serratia marcescens expressing IMP-1 (CL5741); assay: Antibiotic potentiation activity: synergistic concentration (MITC95) with imipenem, OD600 growth; assay type: cell-based
Outline: (§1)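 In 1.1× CAMHB, clinical isolates from overnight plates were challenged with test compound alongside imipenem at an assay concentration of 4 μg/ml, sometimes 1 μg/ml. Plates sat covered at 35 °C for 22–24 h prior to spectrophotometric reading.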

[5] = tested on: Escherichia coli expressing NDM-1 (CLB30016); assay: as above; assay type: cell-based
Outline: as §1

[6] = tested on: Klebsiella pneumoniae expressing VIM-1 (IHMA599644); assay: as above; assay type: cell-based
Outline: as §1

[7] = VIM-1 enzyme, CCF2-FA fluorescence assay, read-out: VIM-1 IC50
[8] = IMP-1 enzyme, CCF2-FA fluorescence assay
[9] = NDM-1 enzyme, CCF2-FA fluorescence assay, read-out: NDM-1 IC50
[10] = Serratia marcescens expressing IMP-1 (CL5741), 95% growth inhibition
[11] = Escherichia coli expressing NDM-1 (CLB30016), 95% growth inhibition
[12] = Klebsiella pneumoniae expressing VIM-1 (IHMA599644), 95% growth inhibition
[13] = VIM-1 enzyme, CCF2-FA substrate, read-out: VIM-1 IC50
[14] = IMP-1 enzyme, CCF2-FA substrate
[15] = NDM-1 enzyme, CCF2-FA substrate, read-out: NDM-1 IC50
[16] = Serratia marcescens CL5741 (IMP-1), 95% growth inhibition
[17] = (CLB30016, NDM-1), 95% growth inhibition
[18] = Klebsiella pneumoniae IHMA599644 (VIM-1), 95% growth inhibition
[19] = VIM-1 IC50, VIM-1 enzyme, CCF2-FA substrate
[20] = fluorescence assay with CCF2-FA substrate
[21] = fluorescence assay with CCF2-FA substrate, read-out: NDM-1 IC50
[22] = concentration giving 95% inhibition of bacterial growth
[23] = fluorescence assay with CCF2-FA substrate, read-out: VIM-1 IC50
[24] = CL5741 (IMP-1), 95% inhibition of bacterial growth
[25] = CLB30016 (NDM-1), 95% inhibition of bacterial growth
[26] = IHMA599644 (VIM-1), 95% inhibition of bacterial growth

`NS(=O)(=O)c1c(Br)ccc(-c2ccc3c(c2)CNC3)c1-c1nn[nH]n1` [Example 272, 6-bromo-3-(isoindolin-5-yl)-2-(2H-tetrazol-5-yl)benzenesulfonamide] gave an IC50 [1, 7] of 5.54 nM, an IC50 [2, 8] of 49 nM and an IC50 [3, 9] of 7.17 nM. The “Serratia marcescens MITC95” value [4, 10] was 1.563 µM, the “Escherichia coli MITC95” value [5, 11] was 0.7813 µM and the “Klebsiella pneumoniae MITC95” value [6, 12] was 0.7813 µM.

In the case of `NS(=O)(=O)c1c(C[C@H]2CC[C@H](N)CC2)ccc(-c2ccc(C3CCNC3)cc2)c1-c1nn[nH]n1` (stereo partly drawn) [Example 582, 4-(((1r,4r)-4-aminocyclohexyl)methyl)-4′-(pyrrolidin-3-yl)-2-(2H-tetrazol-5-yl)-[1,1′-biphenyl]-3-sulfonamide], the IC50 [1, 13] is reported as 1.57 nM, the IC50 [2, 14] is reported as 17.4 nM and the IC50 [3, 15] is reported as 3.99 nM. For the same compound, the “Serratia marcescens MITC95” value [4, 16] was 1.563 µM, the “Escherichia coli MITC95” value [5, 17] was 0.7813 µM and the “Klebsiella pneumoniae MITC95” value [6, 18] was 1.563 µM.

In the case of `NC[C@H]1CC[C@@H](Cc2ccc(-c3ccc(N)nc3)c(-c3nnn[nH]3)c2S(N)(=O)=O)CC1` [Example 580, 6-(((1s,4s)-4-(aminomethyl)cyclohexyl)methyl)-3-(6-aminopyridin-3-yl)-2-(1H-tetrazol-5-yl)benzenesulfonamide], the IC50 [1, 19] is reported as 13.4 nM, the IC50 [2, 14] is reported as 22.7 nM and the IC50 [3, 15] is reported as 0.869 nM. The “Serratia marcescens MITC95” value [4, 16] was 6.25 µM, the “Escherichia coli MITC95” value [5, 17] was 1.563 µM and the “Klebsiella pneumoniae MITC95” value [6, 18] was 12.5 µM.

Work on `CCN1CCC(NCc2ccc(-c3cccc(S(N)(=O)=O)c3-c3nnn[nH]3)cc2)CC1` [Example 352, 4′-{[(1-ethylpiperidin-4-yl)amino]methyl}-2-(1H-tetrazol-5-yl)biphenyl-3-sulfonamide] yielded an IC50 [1, 7] of 916 nM, an IC50 [2, 8] of 547 nM and an IC50 [3, 9] of 38 nM. The “Serratia marcescens MITC95” value [4, 10] was 6.25 µM, the “Escherichia coli MITC95” value [5, 11] was 1.563 µM and the “Klebsiella pneumoniae MITC95” value [6, 12] was greater than 200 µM.

`NS(=O)(=O)c1cccc(-c2cccc(CO)c2)c1-c1nnn[nH]1` [Example 119, 3′-(hydroxymethyl)-2-(1H-tetrazol-5-yl)-[1,1′-biphenyl]-3-sulfonamide] showed an IC50 ([1]; VIM-1 IC50, fluorescence assay with CCF2-FA substrate) of 261 nM, an IC50 [2, 20] of 548 nM and an IC50 [3, 21] of 16.2 nM. The “Serratia marcescens expressing IMP-1 (CL5741) MITC95” value [4, 22] was 18.75 µM, the “Escherichia coli expressing NDM-1 (CLB 30016) MITC95” value [5, 22] was 1.563 µM and the “Klebsiella pneumoniae expressing VIM-1 (IHMA 599644) MITC95” value [6, 22] was 50 µM.

`NS(=O)(=O)c1c(C(F)(F)F)ccc([C@H]2CC[C@H](C3=NCCN3)CC2)c1-c1nnn[nH]1` [Example 506, 3-(trans 4-(4,5-dihydro-1H-imidazol-2-yl)cyclohexyl)-2-(1H-tetrazol-5-yl)-6-(trifluoromethyl)benzenesulfonamide] showed an IC50 [1, 19] of 41.4 nM, an IC50 [2, 14] of 35.7 nM and an IC50 [3] of 2.22 nM. For the same compound, the “Serratia marcescens MITC95” value [4, 16] was 6.25 µM, the “Escherichia coli MITC95” value [5, 17] was 4.688 µM and the “Klebsiella pneumoniae MITC95” value [6, 18] was 100 µM.

Compound `NCC1CCC(N2CCC(c3ccc(-c4ccc(C(F)(F)F)c(S(N)(=O)=O)c4-c4nnn[nH]4)cc3)CC2)CC1` (stereo not drawn) [Example 787, 4′-{1-[4-(aminomethyl)cyclohexyl]piperidin-4-yl}-2-(1H-tetrazol-5-yl)-4-(trifluoromethyl)biphenyl-3-sulfonamide] has an IC50 [1, 23] of 8.1 nM, an IC50 [2, 20] of 1.71 nM and an IC50 [3, 21] of 7.09 nM. For the same compound, the “Serratia marcescens MITC95” value [4, 24] was 3.125 µM, the “Escherichia coli MITC95” value [5, 25] was 1.563 µM and the “Klebsiella pneumoniae MITC95” value [6, 26] was 25 µM.

`NS(=O)(=O)c1c(C(F)(F)F)ccc(-c2ccc(C3CN(C4CC5(CCNCC5)C4)C3)cc2)c1-c1nnn[nH]1` [Example 805, 4′-[1-(7-azaspiro[3.5]non-2-yl)azetidin-3-yl]-2-(1H-tetrazol-5-yl)-4-(trifluoromethyl)biphenyl-3-sulfonamide] showed an IC50 [1, 23] of 19.7 nM, an IC50 [2, 20] of 7.58 nM and an IC50 [3, 21] of 3.77 nM. For the same compound, the “Serratia marcescens MITC95” value [4, 24] was 6.25 µM, the “Escherichia coli MITC95” value [5, 25] was 3.125 µM and the “Klebsiella pneumoniae MITC95” value [6, 26] was 50 µM.

In the case of `NS(=O)(=O)c1c(C(F)(F)F)ccc(C2CCn3cncc3C2)c1-c1nnn[nH]1` (stereo not drawn) [Example 494, 3-(5,6,7,8-Tetrahydroimidazo[1,5-a]pyridin-7-yl)-2-(1H-tetrazol-5-yl)-6-(trifluoromethyl)benzenesulfonamide], the IC50 [1, 13] is reported as 0.427 nM, the IC50 [2, 14] is reported as 13 nM and the IC50 [3, 15] is reported as 4.43 nM. For the same compound, the “Serratia marcescens MITC95” value [4, 16] was 1.172 µM, the “Escherichia coli MITC95” value [5, 17] was 0.3906 µM and the “Klebsiella pneumoniae MITC95” value [6, 18] was 1.563 µM.

With `NS(=O)(=O)c1c(C[C@H]2CC[C@@H](N)CC2)ccc(-c2ccc(C3CCNC3)cc2)c1-c1nnn[nH]1` (stereo partly drawn) [Example 583, 4-(((1s,4s)-4-aminocyclohexyl)methyl)-4′-(pyrrolidin-3-yl)-2-(1H-tetrazol-5-yl)-[1,1′-biphenyl]-3-sulfonamide] the IC50 [1, 13] was 23.6 nM, the IC50 [2, 14] was 12 nM and the IC50 [3, 15] was 6.53 nM. For the same compound, the “Serratia marcescens MITC95” value [4, 16] was 6.25 µM, the “Escherichia coli MITC95” value [5, 17] was 3.125 µM and the “Klebsiella pneumoniae MITC95” value [6, 18] was 6.25 µM.

In the case of `NS(=O)(=O)c1c(C(F)(F)F)ccc(-c2cccn3ncnc23)c1-c1nnn[nH]1` [Example 840, 3-([1,2,4]triazolo[1,5-a]pyridin-8-yl)-2-(1H-tetrazol-5-yl)-6-(trifluoromethyl)benzenesulfonamide], the IC50 [1, 23] is reported as 0.46 nM, the IC50 [2, 20] is reported as 14.1 nM and the IC50 [3, 21] is reported as 2.49 nM. For the same compound, the “Serratia marcescens MITC95” value [4, 24] was 12.5 µM, the “Escherichia coli MITC95” value [5, 25] was 3.125 µM and the “Klebsiella pneumoniae MITC95” value [6, 26] was 6.25 µM.

With `NS(=O)(=O)c1cccc(-c2ccc(CN3CC[C@H](CO)C3)cc2)c1-c1nnn[nH]1` [Example 392, 4′-{[(3S)-3-(hydroxymethyl)pyrrolidin-l-yl]methyl}-2-(1H-tetrazol-5-yl)biphenyl-3-sulfonamide] the IC50 ([1]; VIM-1 IC50, VIM-1 enzyme, CCF2-FA fluorescence assay) was 455 nM, the IC50 [2, 8] was 394 nM and the IC50 [3, 9] was 7.88 nM. The “Serratia marcescens MITC95” value [4, 10] was 3.125 µM, the “Escherichia coli MITC95” value [5, 11] was 2.344 µM and the “Klebsiella pneumoniae MITC95” value [6, 12] was 75 µM.

With `NS(=O)(=O)c1cccc(-c2ccc(NCC3CCN3)nc2)c1-c1nnn[nH]1` (stereo not drawn) [Example 638, 3-[6-(azetidin-2-ylmethylamino)-3-pyridyl]-2-(1H-tetrazol-5-yl)benzenesulfonamide] the IC50 [1, 19] was 181 nM, the IC50 [2, 14] was 596 nM and the IC50 [3, 15] was 55 nM. The “Serratia marcescens MITC95” value [4, 16] was 12.5 µM, the “Escherichia coli MITC95” value [5, 17] was 0.7813 µM and the “Klebsiella pneumoniae MITC95” value [6, 18] was 12.5 µM.

`Nc1ncc(C#Cc2ccc(C(F)(F)F)c(S(N)(=O)=O)c2-c2nn[nH]n2)cc1CO` [Example 507, 3-((6-Amino-5-(hydroxymethyl)pyridin-3-yl)ethynyl)-2-(2H-tetrazol-5-yl)-6-(trifluoromethyl)benzenesulfonamide] showed an IC50 [1, 19] of 3.27 nM, an IC50 [2, 14] of 4.31 nM and an IC50 [3, 15] of 11.5 nM. For the same compound, the “Serratia marcescens MITC95” value [4, 16] was 0.5859 µM, the “Escherichia coli MITC95” value [5, 17] was 4.688 µM and the “Klebsiella pneumoniae MITC95” value [6, 18] was 25 µM.

`Nc1nc2cc(-c3ccc(CC4CNC4)c(S(N)(=O)=O)c3-c3nn[nH]n3)ccc2[nH]1` [Example 611, 3-(2-amino-3H-benzo[d]imidazol-5-yl)-6-(azetidin-3-ylmethyl)-2-(2H-tetrazol-5-yl)benzenesulfonamide] was tested, and the IC50 [1, 13] was 20.1 nM, the IC50 [2, 14] was 344 nM and the IC50 [3, 15] was 17.7 nM. The “Serratia marcescens MITC95” value [4, 16] was 12.5 µM, the “Escherichia coli MITC95” value [5, 17] was 0.3906 µM and the “Klebsiella pneumoniae MITC95” value [6, 18] was 1.563 µM.

In the case of `NS(=O)(=O)c1c(C(F)(F)F)ccc(-c2ccc(C3CCN(CC4CCNC4)CC3)cc2)c1-c1nnn[nH]1` (stereo not drawn) [Example 795, 4′-[1-(pyrrolidin-3-ylmethyl)piperidin-4-yl]-2-(1H-tetrazol-5-yl)-4-(trifluoromethyl)biphenyl-3-sulfonamide], the IC50 [1, 23] is reported as 6.57 nM, the IC50 [2, 20] is reported as 1.1 nM and the IC50 [3, 21] is reported as 5.23 nM. For the same compound, the “Serratia marcescens MITC95” value [4, 24] was 3.125 µM, the “Escherichia coli MITC95” value [5, 25] was 1.563 µM and the “Klebsiella pneumoniae MITC95” value [6, 26] was 25 µM.

In the case of `CNC(=O)CNCc1ccc(-c2cccc(S(N)(=O)=O)c2-c2nnn[nH]2)cc1` [Example 371, N-methyl-N~2~-{[3′-sulfamoyl-2′-(1H-tetrazol-5-yl)biphenyl-4-yl]methyl}glycinamide], the IC50 [1, 7] is reported as 370 nM, the IC50 [2, 8] is reported as 78.3 nM and the IC50 [3, 9] is reported as 8.5 nM. For the same compound, the “Serratia marcescens MITC95” value [4, 10] was 2.344 µM, the “Escherichia coli MITC95” value [5, 11] was 0.7813 µM and the “Klebsiella pneumoniae MITC95” value [6, 12] was 100 µM.

Compound `Nc1nc2cc(C(F)(F)F)cc(-c3ccc(C(F)(F)F)c(S(N)(=O)=O)c3-c3nnn[nH]3)c2[nH]1` [Example 567] has an IC50 [1, 13] of 0.225 nM, an IC50 [2, 14] of 3.77 nM and an IC50 [3, 15] of 0.299 nM. The “Serratia marcescens MITC95” value [4, 16] was 6.25 µM, the “Escherichia coli MITC95” value [5, 17] was 3.125 µM and the “Klebsiella pneumoniae MITC95” value [6, 18] was 6.25 µM.
